According to patent publication US20240299484A1, “DILEUCINE COMPOSITIONS AND METHODS OF USE THEREOF” (Ingenious Ingredients, LP, priority 2023, published 2024):
Marks after values point to notes of the source that are not given here.

Test system: TH2
Test: Immune health biomarkers (T helper subsets): TH2
Type: in vivo, Swiss Albino mice
Conditions: T helper subset in blood after 28 days, mice, n = 8
Protocol: (§1) PMI Nutrition International, Brentwood, MO, USA). Distilled water was provided ad libitum. All animal experiments were reviewed and approved by the Institutional Animal Ethical Committee (IAEC) of Radiant Research Services Pvt. Ltd (Bangalore, India). All research was conducted in accordance with the guidelines of the committee for the purpose of control and supervision of experiments on animals (CPCSEA Registration Number-1803/PO/[…]). […] (1) vehicle control; […] (4) paraxanthine+dileucine; […] The dose administered to the mice was calculated using US Food and Drug Administration for human equivalence doses (HED), assuming a human weight of 60 kg. […] Dosing was conducted via oral gavage using disposable polypropylene syringes with sterilized stainless steel gavage tubes. The food intake and water consumption were monitored daily, and BW was recorded weekly. The last dose on day 28 was given 1 hour prior to testing. Serum and plasma samples were separated by centrifuging the blood at 8000 rpm for 10 mins and analyze the below mentioned biomarkers, Biomarkers: TC, TG, LDL and HDL, CRP, Serum lactate, Ammonia, Glucose, NO, IL-2, IL-6, IL-10. Blood was collected in EDTA tubes for below mentioned biomarkers, Immune health Biomarkers (T helper subsets): […]

Q: Which “TH2(%)” value does the source give for `Cn1c(=O)[nH]c2ncn(C)c2c1=O` [Paraxanthine, 1,7-dimethylxanthine] here?
A: 53.63*** %

Same assay, conditions: vs Exercise Control, 28 days

Q: Which “TH2 Change over control [%]” value does the source give for `Cn1c(=O)[nH]c2ncn(C)c2c1=O` [Paraxanthine, 1,7-dimethylxanthine] here?
A: 368%

Test system: TH17
Test: Immune health biomarkers (T helper subsets): TH17
Type: in vivo, Swiss Albino mice
Conditions: T helper subset in blood after 28 days, mice, n = 8
Protocol: as §1

Q: Which “TH17(%)” value does the source give for `Cn1c(=O)[nH]c2ncn(C)c2c1=O` [Paraxanthine, 1,7-dimethylxanthine] here?
A: 31.33*** %

Same assay, conditions: vs Exercise Control, 28 days

Q: Which “TH17 Change over control [%]” value does the source give for `Cn1c(=O)[nH]c2ncn(C)c2c1=O` [Paraxanthine, 1,7-dimethylxanthine] here?
A: 758%

Test system: low-density lipids (LDL)
Test: Blood lipids: LDL
Type: in vivo, Swiss Albino mice
Conditions: after 28 days of supplementation, mice, n = 8
Protocol: (§2) Eight 8-week-old male Swiss Albino mice per experimental group were housed in an animal room at a constant temperature (22±3° C.) and humidity (30%-70%) under a 12:12 h light-dark cycle with standard laboratory diet (Purina 5L79, Rat and Mouse 18% protein; PMI Nutrition International, Brentwood, MO, USA). Distilled water was provided ad libitum. All animal experiments were reviewed and approved by the Institutional Animal Ethical Committee (IAEC) of Radiant Research Services Pvt. Ltd (Bangalore, India). All research was conducted in accordance with the guidelines of the committee for the purpose of control and supervision of experiments on animals (CPCSEA Registration Number-1803/PO/RcBi/S/2015/CPCSEA).
(§3) After one week of acclimation, the animals were randomly divided by body weight into different groups (n=8 per group in each test) for oral treatment once a day, at approximately same time each day (+1 hour), for 28 consecutive days: (1) vehicle control; (2) paraxanthine (3) dileucine; (4) paraxanthine+dileucine; (5) L-arginine; (6) L-arginine+dileucine; (7) L-citrulline; and (8) L-citrulline+dileucine. The dose administered to the mice was calculated using US Food and Drug Administration for human equivalence doses (HED), assuming a human weight of 60 kg. The following HED were used in this study: 2,000 mg dileucine (RAMPS™, Ingenious Ingredients, L.P., Lewisville, TX, USA; mouse 411 mg/kg bw), 100 mg paraxanthine, (ENFINITY™, Ingenious Ingredients, L.P Lewisville, TX, USA; mouse dose: 20.5 mg/kg bw/day); 3,000 mg L-arginine (Nanjing Nutrabuilding Bio-tech Co., LTD., No. 270 Jiqingmen Strect, Suning Huigu, Building E6, Room 2105, Nanjing, China 210017; mouse 616.55 mg/kg bw), 3,000 mg L-citrulline (Nanjing Nutrabuilding Bio-tech Co., LTD., No. 270 Jiqingmen Street, Suning Huigu, Building E6, Room 2105, Nanjing, China 210017; mouse 616.55 mg/kg bw). 0.5% Carboxy Methyl Cellulose sodium was used as vehicle and the test item formulations were prepared daily. Dosing was conducted via oral gavage using disposable polypropylene syringes with sterilized stainless steel gavage tubes. The food intake and water consumption were monitored daily, and BW was recorded weekly. The last dose on day 28 was given 1 hour prior to testing.
(§4) All animals were euthanized by 95% CO2 after 28 days of following their assigned treatment. Blood was collected immediately after euthanization by the retro-orbital route and was immediately centrifuged at 1500×g for 10 min at 4° C. before having all serum transferred into cryogenic tubes and stored at −80° C.
(§5) Serum and plasma samples were separated by centrifuging the blood at 8000 rpm for 10 mins and analyze the below mentioned biomarkers, Biomarkers: TC, TG, LDL and HDL, CRP, Serum lactate, Ammonia, Glucose, NO, IL-2, IL-6, IL-10. Blood was collected in EDTA tubes for below mentioned biomarkers, Immune health Biomarkers (T helper subsets): TH1, TH2, TH17, Tfh, iTreg.

Q: With `Cn1c(=O)[nH]c2ncn(C)c2c1=O` [Paraxanthine, 1,7-dimethylxanthine] as the molecule, how does the “LDL” value read?
A: 43.23 mg/dL

Same assay, conditions: vs Exercise Control, 28 days

Q: Which “LDL Change over control [%]” value does the source give for `Cn1c(=O)[nH]c2ncn(C)c2c1=O` [Paraxanthine, 1,7-dimethylxanthine] here?
A: −1%

Test system: IL-2
Test: Inflammatory markers: IL-2
Type: in vivo, Swiss Albino mice
Conditions: after 28 days of supplementation and exercise, mice, n = 8
Protocol: as §2, §3, §4, §5

Q: Which “IL-2” value does the source give for `Cn1c(=O)[nH]c2ncn(C)c2c1=O` [Paraxanthine, 1,7-dimethylxanthine] here?
A: 45.91 ng/L

Same assay, conditions: vs Exercise Control, 28 days

Q: Which “IL-2 Change over control [%]” value does the source give for `Cn1c(=O)[nH]c2ncn(C)c2c1=O` [Paraxanthine, 1,7-dimethylxanthine] here?
A: 23%

Test system: IL-6
Test: Inflammatory markers: IL-6
Type: in vivo, Swiss Albino mice
Conditions: after 28 days of supplementation and exercise, mice, n = 8
Protocol: as §2, §3, §4, §5

Q: For `Cn1c(=O)[nH]c2ncn(C)c2c1=O` [Paraxanthine, 1,7-dimethylxanthine], which “IL-6 (pg/ml)” value is on record?
A: 340.6** pg/ml

Same assay, conditions: vs Exercise Control, 28 days

Q: With `Cn1c(=O)[nH]c2ncn(C)c2c1=O` [Paraxanthine, 1,7-dimethylxanthine] as the molecule, how does the “IL-6 Change over control [%]” value read?
A: −8%

Test system: Tfh
Test: Immune health biomarkers (T helper subsets): Tfh
Type: in vivo, Swiss Albino mice
Conditions: T helper subset in blood after 28 days, mice, n = 8
Protocol: as §2, §3, §5

Q: For `Cn1c(=O)[nH]c2ncn(C)c2c1=O` [Paraxanthine, 1,7-dimethylxanthine], which “Tfh(%) (mg/L)” value is on record?
A: 54.96*** %

Same assay, conditions: vs Exercise Control, 28 days

Q: With `Cn1c(=O)[nH]c2ncn(C)c2c1=O` [Paraxanthine, 1,7-dimethylxanthine] as the molecule, how does the “Tfh Change over control [%]” value read?
A: 603%

Test system: IL-10
Test: Inflammatory markers: IL-10
Type: in vivo, Swiss Albino mice
Conditions: after 28 days of supplementation and exercise, mice, n = 8
Protocol: as §2, §3, §4, §5

Q: For `Cn1c(=O)[nH]c2ncn(C)c2c1=O` [Paraxanthine, 1,7-dimethylxanthine], which “IL-10 (pg/ml)” value is on record?
A: 571.71*** pg/ml

Same assay, conditions: vs Exercise Control, 28 days

Q: With `Cn1c(=O)[nH]c2ncn(C)c2c1=O` [Paraxanthine, 1,7-dimethylxanthine] as the molecule, how does the “IL-10 Change over control [%]” value read?
A: 8%

Test system: not listed separately
Test: Effect on body weight, 28-day oral supplementation with exercise
Type: in vivo, Swiss Albino mice
Conditions: Day −0 (baseline), mice, n = 8
Protocol: as §2, §3
Individual body weights were recorded at receipt, on the day of randomization, on the first day of treatment before dosing (Day 1) and weekly thereafter. The body weight changes for all the animals were calculated and reported along with the body weight data.

Q: Which “Body Weight (grams) Day −0” value does the source give for `Cn1c(=O)[nH]c2ncn(C)c2c1=O` [Paraxanthine, 1,7-dimethylxanthine] here?
A: 24.35 grams

Same assay, conditions: Day −0 to Day −28, oral once a day

Q: Which “Weight gain in grams” value does the source give for `Cn1c(=O)[nH]c2ncn(C)c2c1=O` [Paraxanthine, 1,7-dimethylxanthine] here?
A: 8.86 grams

Same assay, conditions: Day −28, oral once a day for 28 days, mice, n = 8

Q: Which “Body Weight (grams) Day −28” value does the source give for `Cn1c(=O)[nH]c2ncn(C)c2c1=O` [Paraxanthine, 1,7-dimethylxanthine] here?
A: 33.21* grams

Same assay, conditions: weight gain vs Exercise Control, 28 days

Q: For `Cn1c(=O)[nH]c2ncn(C)c2c1=O` [Paraxanthine, 1,7-dimethylxanthine], which “Percentage weight loss over control” value is on record?
A: −18%

Test system: not listed separately
Test: Forelimb grip strength test
Type: in vivo, Swiss Albino mice
Conditions: Day −0 (baseline), mice, n = 8
Protocol: as §2, §3
The forelimb grip strength was measured on day 0 and day 28 by using a stainless-steel grill to assess muscle strength (Orchid Scientific & Innovative India Pvt Ltd, India). Grip strength was measured one hour after treatment. Briefly, each mouse was placed on a grill chamber and the steel bar is inverted; grip strength is measured by recording the time each animal holds the steel bar. The maximum time for each trial was six minutes. Each animal performed three independent trials separated by six minutes intervals and the mean of the three trials was calculated.

Q: For `Cn1c(=O)[nH]c2ncn(C)c2c1=O` [Paraxanthine, 1,7-dimethylxanthine], which “Forelimb grip strength (gf) Day −0” value is on record?
A: 98.38 gf

Same assay, conditions: Day −28, one hour after treatment, oral once a day for 28 days

Q: Which “Forelimb grip strength (gf) Day −28” value does the source give for `Cn1c(=O)[nH]c2ncn(C)c2c1=O` [Paraxanthine, 1,7-dimethylxanthine] here?
A: 148.88*** gf

Same assay, conditions: Day −28 minus Day −0

Q: Which “Increase strength over Day −0” value does the source give for `Cn1c(=O)[nH]c2ncn(C)c2c1=O` [Paraxanthine, 1,7-dimethylxanthine] here?
A: 50.5 gf

Same assay, conditions: increase vs Exercise Control, 28 days

Q: Which “Percentage Increase over control (grip strength)” value does the source give for `Cn1c(=O)[nH]c2ncn(C)c2c1=O` [Paraxanthine, 1,7-dimethylxanthine] here?
A: 79%

Test system: C-reactive protein (CRP)
Test: Inflammatory markers: CRP
Type: in vivo, Swiss Albino mice
Conditions: after 28 days of supplementation and exercise, mice, n = 8
Protocol: as §2, §3, §4, §5

Q: Which “CRP (mg/L)” value does the source give for `Cn1c(=O)[nH]c2ncn(C)c2c1=O` [Paraxanthine, 1,7-dimethylxanthine] here?
A: 0.64** mg/L

Same assay, conditions: vs Exercise Control, 28 days

Q: With `Cn1c(=O)[nH]c2ncn(C)c2c1=O` [Paraxanthine, 1,7-dimethylxanthine] as the molecule, how does the “CRP Change over control [%]” value read?
A: −17%

Test system: nitric oxide
Test: NO signaling: nitric oxide level
Type: in vivo, Swiss Albino mice
Conditions: after 28 days of supplementation and exercise, mice, n = 8
Protocol: as §2, §3, §4, §5

Q: Which “Nitric oxide (μmol/L) (mg/L)” value does the source give for `Cn1c(=O)[nH]c2ncn(C)c2c1=O` [Paraxanthine, 1,7-dimethylxanthine] here?
A: 84.29*** μmol/L

Same assay, conditions: vs Exercise Control, 28 days

Q: With `Cn1c(=O)[nH]c2ncn(C)c2c1=O` [Paraxanthine, 1,7-dimethylxanthine] as the molecule, how does the “Nitric oxide Change over control [%]” value read?
A: 33%

Test system: high-density lipids (HDL)
Test: Blood lipids: HDL
Type: in vivo, Swiss Albino mice
Conditions: after 28 days of supplementation, mice, n = 8
Protocol: as §2, §3, §4, §5

Q: For `Cn1c(=O)[nH]c2ncn(C)c2c1=O` [Paraxanthine, 1,7-dimethylxanthine], which “HDL” value is on record?
A: 36.36 mg/dL

Same assay, conditions: vs Exercise Control, 28 days

Q: For `Cn1c(=O)[nH]c2ncn(C)c2c1=O` [Paraxanthine, 1,7-dimethylxanthine], which “HDL Change over control [%]” value is on record?
A: 4%
